According to patent US20240277873A1, “ULTRABRIGHT […] PROBES FOR DETECTION AND IMAGING” (Nanyang Technological University, priority 2021, published 2024):
Read-outs that look alike come from different tables or passages of the source.

How the values were obtained:
[1] = cited from earlier work
[2] = Chemiluminescence quantum yield in the presence of O2•-; assay type: physicochemical; settings: probe 20 μM, O2•- 100 μM, PBS (10 mM, pH 7.4, 10% DMSO), 37° C.
Procedure: The chemiluminescence QYs of BOPDSu, BTPDSu, MBPDSu, and MPDSu (20 μM) were measured in the presence of O2^•- (100 μM) in PBS (10 mM, pH 7.4, 10% DMSO) at 37° C. The fluorescence QYs were determined by using Rhodamine B as a standard dye (QY 36%) in PBS (10 mM, pH 7.4) (X. Zhen et al., ACS Nano 2016, 10, 6400-6409). The fluorescence QY of AMPD was obtained from the literature (O. Green et al., ACS Cent. Sci. 2017, 3, 349-358).

[3] = Chemiluminescence and fluorescence changes of probes toward O2•- (KO2): response, selectivity, LOD; settings: for LOD against O2•-: KO2 0-1000 nM, LOD=3σ/k; for LOD against O2•- / fluorescent signal enhancement upon cleavage by O2•-: PBS (10 mM, pH 7.4, 10% DMSO), 37° C.; for chemiluminescence intensity increase after addition of O2•- / fluorescent signal enhancement upon cleavage by O2•-: probe 20 μM; for chemiluminescence intensity increase after addition of O2•-: O2•- 40 μM for 10 s, PBS pH 7.4, 37° C., at 480 / 520 / 580 / 540 nm; for fluorescent signal enhancement upon cleavage by O2•-: at ~486 / 532 / 582 / 542 nm
Procedure: The chemiluminescence and fluorescence changes of BOPDSu, BTPDSu, MBPDSu and MPDSu (20 μM) were recorded at different concentrations of RONS (40 μM) and other metal ions (100 μM). BOPDSu, BTPDSu, MBPDSu and MPDSu (20 μM) in phosphate buffered saline (PBS) buffer were treated in the presence of different RONS (40 μM), and metal ions (Mg^2+, Ca^2+ or Fe^2+, 100 μM) at 37° C.
The chemiluminescence signals were recorded at different concentrations of KO2 (0, 50, 100, 250, 500 and 1000 nM). Then, the limit of detection (LOD) of BOPDSu, BTPDSu, MBPDSu and MPDSu were calculated by chemiluminescence intensities based on the equation: LOD=3σ/k, where σ is the standard deviation of emission intensity of blank, and k is the slope of plot of emission intensities.

[4] = Chemiluminescence kinetic studies (half-lives, CL emission) of caged probes in the presence of O2•-; assay type: physicochemical; settings: caged probe after activation, in PBS (10% DMSO) at 37° C.
Procedure: FIG. […]
[…] The chemiluminescent intensities were plotted as a function of time.
[…] The chemiluminescence signal was recorded by the microplate reader to calculate half-lives of BTPDSu at different pHs.

[5] = uncaged, in PBS (10% DMSO), pH 7.4, 37° C.
[6] = uncaged, in PBS (10% DMSO), pH 10, 37° C.
[7] = uncaged, in PBS, pH 7.4, 10% FBS
[8] = uncaged, in PBS (5% DMSO), pH 7.4, 37° C.

In the case of `COC1(c2ccc(/C=C/c3ccc(CC(=O)O)cc3)c(O)c2Cl)OOC12C1CC3CC(C1)CC2C3` (stereo not drawn), the “CL Emission” value [1, 5] is listed as 500 nm and the “CL Emission” value [1, 6] is listed as 500 nm.
For `COC1(c2ccc(/C=C/c3ccc(OCC(=O)O)cc3)c(O)c2Cl)OOC12C1CC3CC(C1)CC2C3` (stereo not drawn), the “CL Emission” value [1, 5] is given as 490 nm and the “CL Emission” value [1, 6] is given as 490 nm.
In the case of benzoxazole-phenoxyl-dioxetane [BOPDSu], the “ΦCl, chemiluminescence QY” value [2] is reported as 0.189 einsteins/mol, the “LOD against O2•-” value [3] is reported as about 5.7 nM and the “chemiluminescence intensity increase after addition of O2•-” value (“chemiluminescence intensity increase” for short) [3] is reported as 3291 times. For the same compound, the “fluorescent signal enhancement upon cleavage by O2•-” value [3] was 45.3 folds.
For `COC1(c2cccc(O)c2)OOC12C1CC3CC(C1)CC2C3` (stereo not drawn), the “CL Emission” value ([1]; uncaged, in o-Xylene at 25° C.) is listed as about 460 nm.
For `COC1(c2ccc(/C=C/C#N)c(OC(=O)c3ccccc3P(c3ccccc3)c3ccccc3)c2Cl)OOC12C1CC3CC(C1)CC2C3` (stereo not drawn), the “CL Emission” value ([1]; caged, after activation, in 20 mM HEPES or PBS (pH 7.4), 1% DMSO) is given as 525 nm.
In the case of “1-methylpyridinium-benzothiazole-phenoxyl-dioxetane [MBPDSu]”, the “CL Emission” value [4] is reported as 580 nm, the “ΦCl, chemiluminescence QY” value [2] is reported as 0.045 einsteins/mol and the “LOD against O2•-” value [3] is reported as 6.3 nM. The “chemiluminescence intensity increase” value [3] was 2590 times and the “fluorescent signal enhancement upon cleavage by O2•-” value [3] was 40.5 folds.
In the case of `CC(=O)Oc1cc(C23OCC(C)(C)C2(C(C)(C)C)OO3)cc2ccc(=O)oc12` (stereo not drawn), the “CL Emission” value ([1]; caged, after activation, in DMSO with 170 μM TBAF at 25° C.) is given as 470 nm.
For `COC1(c2ccc(/C=C/c3ccc(C(=O)O)cc3)c(O)c2Cl)OOC12C1CC3CC(C1)CC2C3` (stereo not drawn), the “CL Emission” value [1, 5] is given as 535 nm and the “CL Emission” value [1, 6] is given as 535 nm.
In the case of `COC1(c2cc(O)c(/C=C/C(=O)O)cc2/C=C/C2=CC(=C(C#N)C#N)c3ccccc3O2)OOC12C1CC3CC(C1)CC2C3` (stereo not drawn), the “CL Emission” value [1, 7] is given as 690 nm.
For “methyl acrylate-phenoxyl-dioxetane [MPDSu, reference compound]”, the “ΦCl, chemiluminescence QY” value [2] was 0.023 einsteins/mol, the “LOD against O2•-” value [3] was 13.6 nM and the “chemiluminescence intensity increase” value [3] was 2624 times. For the same compound, the “fluorescent signal enhancement upon cleavage by O2•-” value [3] was 11.2 folds.
For `COC(=O)/C=C/c1ccc(C2(OC)OOC23C2CC4CC(C2)CC3C4)c(Cl)c1O` (stereo not drawn) [drawing 49], the “CL Emission” value [1, 5] is listed as 540 nm and the “CL Emission” value [1, 6] is listed as 550 nm.
For `COC1(c2ccc(/C=C/C(=O)O)c(O)c2Cl)OOC12C1CC3CC(C1)CC2C3` (stereo not drawn), the “CL Emission” value [1, 5] is listed as 510 nm and the “CL Emission” value [1, 6] is listed as 510 nm.
In the case of `COC1(c2ccc(/C=C/C#N)c(O)c2Cl)OOC12C1CC3CC(C1)CC2C3` (stereo not drawn) [drawing 51], the “CL Emission” value [1, 8] is given as 525 nm.
In the case of `COC1(c2cc(O)cc3oc(=O)ccc23)OOC12C1CC3CC(C1)CC2C3` (stereo not drawn), the “CL Emission” value [1, 5] is given as 465 nm.
In the case of `COC1(c2cccc(O)c2Cl)OOC12C1CC3CC(C1)CC2C3` (stereo not drawn), the “CL Emission” value [1, 8] is given as 470 nm and the “CL Emission” value ([1]; uncaged, in PBS (5% DMSO), pH 10, 37° C.) is given as 470 nm.
In the case of `COC1(c2ccc(/C=C/C#N)c(OCc3ccc4c(c3)C(=O)C(=O)N4)c2Cl)OOC12C1CC3CC(C1)CC2C3` (stereo not drawn), the “CL Emission” value ([1]; caged, after activation, in 20 mM HEPES (pH 7.4), 1% DMSO) is given as 525 nm.
For `COC(=O)/C=C/c1ccc(C2(OC)OOC23C2CC4CC(C2)CC3C4)c(Cl)c1O` (stereo not drawn) [drawing 50], the “CL Emission” value [1, 8] is given as 540 nm.
In the case of `COC1(c2ccc(/C=C/C#N)c(O)c2Cl)OOC12C1CC3CC(C1)CC2C3` (stereo not drawn) [drawing 52], the “CL Emission” value [1, 5] is given as 525 nm and the “CL Emission” value [1, 6] is given as 525 nm.
In the case of `COC1(c2cc(O)ccc2/C=C/C2=CC(=C(C#N)C#N)c3ccccc3O2)OOC12C1CC3CC(C1)CC2C3` (stereo not drawn), the “CL Emission” value [1, 7] is listed as 660 nm.
